Patent US8481600B2, “Formulation of aspirin that is stable and showing minimal hydrolysis for parenteral administration for the treatment of cardiovascular and other disease states” (Academic Pharmaceuticals, Inc., priority 2007, dated 2013)
Values joined by “and” are separate entries in the source; they are usually repeats but may differ in a detail not shown here. Equal values may be shown once.

Legend:
[1] = HPLC analysis of ASA solutions for hydrolysis to salicylic acid (stability on storage); format: physicochemical
Method: (§1) A 10 μl solution of this formulation is tested using the following HPLC procedure for analysis. A constant-flow pump, Thermo-Finnigan Spectra-System P2000 was used to deliver eluent solvent at a rate of 1 ml/min to a column, Luna, 5μ, C8(2), 100 A, […] (Phenomenex, Calif.). The eluent solvent system was NaH2PO4 (0.025 M): Na2HPO4 (0.25 M): MeOH (25:25:50 V/V) pH adjusted to 3.2 with either phosphoric acid or concentrated HCL. Methanolic solutions of aspirin and salicylic acid 10 μl (concentration of 1 mg/ml) were injected onto the column. The eluted compounds were detected using a Spectra 200 programmable UV wavelength detector and Thermo-Finnigan Chrome Jet integrator. The wavelength of detector was either […]. Under these conditions, retention times for aspirin and hydrolysis product, salicylic acid was approximately 1.75 minutes and 3.34 minutes respectively. […]

[2] = Solution compatibility: NNDMA solution of ASA diluted with diluents, HPLC; format: physicochemical; conditions: for Assay of Compounds: Aspirin / Assay of Compounds: Salicylic Acid: ASA in NNDMA diluted with D5W, RT
Method: In another series of experiments, 1 ml of the solution containing only NNDMA (Table 3) was diluted with 100 ml of diluents such as 1. distilled H2O, 2. Ringers lactate solution, 3. D5W and 4. normal saline and then the pH of these solutions were adjusted to 6.5 with 1 N NaOH. […] After 12 hours of storage, however, the hydrolysis of ASA was observed (up to 5% within 24 hours). […] One skilled in the art will recognize that modifications may be made in the persent invention without deviating from the spirit or scope of this invention which is illustrated further by the specific examples of dissolution attempts described herein and these examples are not to be construed as limiting the scope of this invention.
as §1

[3] = 25° C.; cited from earlier work
[4] = a. H2O (2.0 ml), 1-Propanol (0.5 ml), Tween 20 (0.5 ml), within 1 hr
[5] = aspirin dissolved in water (2 ml), upon mixing (FIG. 1)
[6] = glycerin (1 ml), 1-propanol (3 ml), Tween 80 (0.2 ml), upon mixing (FIG. 2)
[7] = 1 ml NNDMA solution diluted in D5W, after 12 hours (FIG. 6)

Structure (SMILES): CC(=O)Oc1ccccc1C(=O)O [ASA, aspirin]
- Purity of ASA in solution ([1]; 1. N,N-Dimethylacetamide (NNDMA)): >99%
- Purity of ASA in solution ([1]; 2. NNDMA, Glycerol (0.1 in 10 ml), Tween 20 (0.1 in 10 ml)): Purity >99%
- Purity of ASA in solution ([1]; 3. NNDMA, Glycerol (0.1 in 10 ml), Tween 40 (0.1 in 10 ml)): Purity >99%
- Purity of ASA in solution ([1]; 4. NNDMA, Glycerol (0.1 in 10 ml), Tween 60 (0.1 in 10 ml)): Purity >99%
- Purity of ASA in solution ([1]; 5. NNDMA, Glycerol (0.1 in 10 ml), Tween 80 (0.1 in 10 ml)): Purity >99%
- Purity of ASA in solution ([1]; 6. NNDMA, Glycerol (0.1 in 10 ml)): Purity >99%
- Purity of ASA in solution ([1]; 7. NNDMA, Glycerol (0.1 in 10 ml), DMSO (1-2%)): Purity >99%
- Purity of ASA in solution ([1]; 8. NNDMA, DMSO (1.2%)): Purity >99%
- Aspirin (HPLC purity) ([1]; ASA in NNDMA, 40° C., 6 months): 97.5% and 97.9%-98.6%
- Aspirin (HPLC purity) ([1]; ASA in NNDMA, 40° C., 6 months, listed as aspirin): 98%
- Aspirin (HPLC purity) ([1]; ASA in NNDMA, RT, 6 months): 99.4%
- Salicylic Acid / hydrolysis product ([1]; ASA in NNDMA, RT, 6 months): 0.3%
- stability of solution of ASA in NNDMA ([1]; Example 1: 1.0 gm of aspirin in 2 mL NNDMA): stable and resists hydrolysis
- solution stability on pH adjustment ([1]; NNDMA solutions of Table 3, pH adjusted in the range of 1.5-6.0): without changing solution stability
- aspirin purity (HPLC) ([1]; NNDMA, glycerol and Tween 20, RT, 6 months (FIG. 5)): 99%
- HPLC Results: aspirin [1, 4]: ~95% aspirin
- HPLC Results: salicylic acid [1, 4]: ~5%
- amount of aspirin present ([1]; all 8 NNDMA solutions of Table 3, room temperature, 6 months): greater than 98%
- hydrolysis on storage ([1]; all 8 NNDMA solutions of Table 3, stored at room temperature): no significant amount of hydrolysis could be detected
- aspirin, HPLC peak 1 area [1, 5]: 95.4%
- hydrolysis product, HPLC peak 2 [1, 5]: 4.9%
- HPLC Results: salicylic acid ([1]; b. H2O (2.0 ml), 1-Propanol (0.5 ml), Tween 40, within 1 hr): ~5%
- HPLC Results: salicylic acid ([1]; c. H2O (2.0 ml), 1-Propanol (0.5 ml), Tween 60, within 1 hr): ~5%
- HPLC Results: salicylic acid ([1]; d. H2O (2.0 ml), 1-Propanol (0.5 ml), Tween 80, within 1 hr): ~5%
- HPLC Results: salicylic acid ([1]; e. H2O (2.0 ml), 1-Propanol (0.5 ml), PEG 300, within 1 hr): ~5%
- HPLC Results: salicylic acid ([1]; f. H2O (2.0 ml), 1-Propanol (0.5 ml), PEG 400, within 1 hr): ~5%
- HPLC Results: salicylic acid ([1]; g. H2O (2.0 ml), 1-Propanol (0.5 ml), PEG 600, within 1 hr): ~5%
- aspirin, HPLC peak 1 [1, 6]: 94.3%
- hydrolysis product, HPLC peak 2 [1, 6]: 5.7%
- HPLC Results: salicylic acid ([1]; h. H2O (2.0 ml), 1-Propanol (0.5 ml), Glycerol, within 1 hr): ~5%
- HPLC Results: salicylic acid ([1]; i. H2O (2 ml), +DMSO (1-2%), Tween 20, within 1 hr): ~5%
- HPLC Results: salicylic acid ([1]; j. H2O (2 ml), +DMSO (1-2%), Tween 40, within 1 hr): ~5%
- HPLC Results: salicylic acid ([1]; k. H2O (2 ml), +DMSO (1-2%), Tween 60, within 1 hr): ~5%
- HPLC Results: salicylic acid ([1]; l. H2O (2 ml), +DMSO (1-2%), Tween 80, within 1 hr): ~5%
- HPLC Results: salicylic acid ([1]; m. Glycerine (1 ml), 1-Propanol (3 ml), Tween 80 (0.2 ml), within 1 hr): ~5%
- HPLC Results: salicylic acid ([1]; n. Glycerine (1 ml), 1,2 propanediol (3 ml), Tween 80 (0.2 ml), within 1 hr): ~5%
- HPLC Results: salicylic acid ([1]; o. Glycerine (1 ml), PEG 300 (3 ml), Tween 80 (0.2 ml), within 1 hr): ~5%
- HPLC Results: salicylic acid ([1]; p. Glycerine (1 ml), PEG 400 (3 ml), Tween 80 (0.2 ml), within 1 hr): ~5%
- HPLC Results: salicylic acid ([1]; q. Glycerine (1 ml), PEG 600 (3 ml), Tween 80 (0.2 ml), within 1 hr): ~5%
- stability of clear solutions in NNDMA on storage ([1]; room temperature and 40° C., 6 months): without the formation of turbidity or a precipitate and without significant hydrolysis of aspirin
- salicylic acid (hydrolysis product) in solutions of ASA ([1]; the 17 solvent systems of Table 2, within one hour, aspirin 50-75 mg/ml, pH 1.5 to 6.8): ≥ 5%
- stability in N,N-dimethylacetamide ([1]; up to 500 mg/ml, stored at 40° C. for up to 6 months): without undergoing significant hydrolysis
- HPLC peak 2 [2, 7]: 0.3%
- HPLC peak 3 [2, 7]: 0.4%
- aspirin purity, HPLC peak 1 ([2]; 1 ml NNDMA solution diluted in distilled water and glucose (D5W), after 12 hours (FIG. 6)): 95% and 94.8%
- appearance of diluted solutions ([2]; 1 ml NNDMA solution in 100 ml distilled H2O, Ringers lactate, D5W or normal saline, pH 6.5, after several days): remained clear
- hydrolysis of ASA ([2]; 1 ml NNDMA solution in 100 ml distilled H2O, Ringers lactate, D5W or normal saline, pH 6.5, up to 12 hours of storage): < 1%
- hydrolysis of ASA ([2]; 1 ml NNDMA solution in 100 ml distilled H2O, Ringers lactate, D5W or normal saline, pH 6.5, within 24 hours): up to 5%
- Assay of Compounds: Aspirin ([2]; up to 12 hours): >99%
- Assay of Compounds: Salicylic Acid ([2]; up to 12 hours): <1%
- Assay of Compounds: Aspirin ([2]; up to 24 hours): 94.7-95.3%
- Assay of Compounds: Salicylic Acid ([2]; up to 24 hours): Max. ~6%
- solubility in water [3]: poor solubility
